# Data from US20230143775A1, “METHODS OF TREATING CORONAVIRUS INFECTIONS” (EAGLE PHARMACEUTICALS, INC., priority 2020, published 2023).
# What was measured:
# SARS-CoV-2 = experiment: Virus neutralization (VN) assay, scoring SARS-CoV-2 cytopathic effects (CPE) in Vero E6 cells; assay type: cell-based; details: for Day 2 Read (CPE) / Day 4 Read (CPE) / Day 6 Read (CPE): triplicate wells
# uninfected Vero E6 cells = details: lower dilutions (<50 μM dantrolene), without virus
# [1] = 20 μM dantrolene (as […]), […], Vero E6 cells
# [2] = 30 μM dantrolene (as […]), […], Vero E6 cells
# [3] = 40 μM dantrolene (as […]), […], Vero E6 cells
smiles,measurement,setting,value
O=C1CN(/N=C/c2ccc(-c3ccc([N+](=O)[O-])cc3)o2)C(O)=N1 [dantrolene],Day 2 Read (CPE),SARS-CoV-2; [1],3/3 wells had No CPE
same,Day 4 Read (CPE),SARS-CoV-2; [1],3/3 wells had No CPE
same,Day 6 Read (CPE),SARS-CoV-2; [1],3/3 wells had No CPE
same,Day 2 Read (CPE),SARS-CoV-2; [2],3/3 wells had No CPE
same,Day 4 Read (CPE),SARS-CoV-2; [2],3/3 wells had No CPE
same,Day 6 Read (CPE),SARS-CoV-2; [2],3/3 wells had No CPE
same,Day 2 Read (CPE),SARS-CoV-2; [3],3/3 wells had No CPE
same,Day 4 Read (CPE),SARS-CoV-2; [3],3/3 wells had No CPE
same,Day 6 Read (CPE),SARS-CoV-2; [3],3/3 wells had No CPE
same,Day 6 Read (CPE),"SARS-CoV-2; 100 μM dantrolene (as […]), […], Vero E6 cells",3/3 wells had >90%
same,CPE,"SARS-CoV-2; 20-40 μM of dantrolene, […]",no CPE was observed
same,cytopathic effects (indicating virus growth),"SARS-CoV-2; 20 and 40 μM dantrolene, all timepoints",No cytopathic effects
same,MIC,"SARS-CoV-2; Severe acute respiratory syndrome coronavirus 2, no CPE across all time points (Days 2, 4, 6), Vero E6 cells, read-out: minimum inhibitory concentration",20 µM
same,anti-viral activity,SARS-CoV-2; lower concentrations of 10 and 5 μM,showed anti-viral activity
same,cell viability of uninfected Vero E6 cells,uninfected Vero E6 cells,good cell viability
